From US6790839B2, “Pharmaceutical administration of adenosine agonists” (Can-Fite Biopharma Ltd., priority 1999, dated 2004)
Entries after “also recorded” stand apart in the source; their conditions may differ.

Assays:
[1] = tested on: bone marrow cells; experiment: Bone marrow cell proliferation in vitro ([3H]-thymidine incorporation assay); assay type: cell-based, C57BL/6J mice
Method: All drugs were purchased from Sigma Chemical Co. St. Louis, Mo. Adenosine was dissolved in water and kept as a stock solution in a concentration of 1 mM. For in vitro studies, dilutions in RPMI medium were carried out and final concentrations of 100, 50, 25, 10 and 5 μM were used. For in vivo studies, the stock solution was diluted with PBS to a concentration of […] and 0.5 ml was injected intraperitoneally to mice. 1,3-dipropyl-8-cyclopentylxanthine (DPCPX), an adenosine A1 receptor antagonist, 3,7-dimethyl-1-propargyl-xanthine (DMPX) an A2 receptor antagonist and N-cyclopentyladenosine (CPA), a selective A1 receptor agonist were added to a culture of proliferating bone marrow cells.
Bone marrow cells were obtained from the femur of C57BL/6J mice. Cells were disaggregated by passing through a 25G needle. [^3H]-Thymidine incorporation assay was used to evaluate the proliferative capability of the bone marrow cells.
Cells (3×10^4/well were incubated with RPMI medium, containing 10% fetal calf serum (FCS) (Biological Industries, Beit Haemek, Israel) and adenosine, adenosine antagonists or the agonist in 96 microtiter plates for 48 h. Cultures containing cells were suspended in RPMI medium and 10% FCS served as controls. In the last 6 hours of incubation, each well was pulsed with 1 μCi [^3H]-thymidine. Cells were harvested and the ^3[H]-thymidine uptake was determined in an LKB liquid scintillation counter (LKB, Piscataway, N.J., USA).

[2] = tested on: white blood cells (WBC) and neutrophils; experiment: In vivo protection against myelotoxic effects of chemotherapy: blood cell count (Coulter counter, differential counts); design: species or system ICR mice; details: for Neutrophils (no.) / WBC (no.): blood, CPA 6 μg/kg per os 48 h and 72 h where given; for Neutrophils (no.): control level 1200; for WBC (no.): control level 6100
Method: Male ICR mice of the age of two months and weighing an average of 25 gr were employed. The mice were purchased from Harlan Laboratories, Jerusalem, […]. Protection of CPA-treated mice against myelotoxic effects of chemotherapy was evaluated. To this end, mice were provided with a chemotherapeutic drug, a combination of the drug with CPA or with a vehicle only. […] In particular, three test groups of mice were treated daily according to the following regimen: 1. Control group-vehicle only. 2. Chemotherapy-CYP (50 mg/kg body weight). 3. Chemotherapy+chemoprotection-CYP (50 mg/kg body weight)+CPA (6 μg/kg body weight, given through per os administration, 48 h and 72 h following chemotherapy treatment). To test the myeloprotective effect of CPA, blood samples were withdrawn from the above-mentioned groups 96 h, 120 h and 144 h following treatment with CYP, the following measurements were taken. Blood cell count-Blood cell count was carried out in a Coulter counter and differential cell counts were performed on smear preparations stained with May-Grunvald-Giemsa solution. Serum was separated from the whole blood and was kept at -70° C.

[3] = tested on: G-CSF; experiment: In vivo serum G-CSF level by ELISA after chemotherapy; design: species or system ICR mice; details: for G-CSF (pgr/ml): serum, CPA 6 μg/kg per os 48 h and 72 h after chemotherapy where given, male ICR mice
Method: Male ICR mice of the age of two months and weighing an average of 25 gr were employed. The mice were purchased from Harlan Laboratories, Jerusalem, […]. Protection of CPA-treated mice against myelotoxic effects of chemotherapy was evaluated. To this end, mice were provided with a chemotherapeutic drug, a combination of the drug with CPA or with a vehicle only. […] In particular, three test groups of mice were treated daily according to the following regimen: 1. Control group-vehicle only. 2. Chemotherapy-CYP (50 mg/kg body weight). 3. Chemotherapy+chemoprotection-CYP (50 mg/kg body weight)+CPA (6 μg/kg body weight, given through per os administration, 48 h and 72 h following chemotherapy treatment). To test the myeloprotective effect of CPA, blood samples were withdrawn from the above-mentioned groups 96 h, 120 h and 144 h following treatment with CYP, the following measurements were taken. G-CSF level-granulocyte colony stimulating factor (G-CSF) level in the serum was determined by the use of a commercial ELISA kit (R&D Systems). G-CSF activity was expressed in pgr/ml according to a standard curve of recombinant G-CSF supplied by R&D Systems.

[4] = tested on: bone marrow cells; details: adenosine 10-50 μM, concentration dependent; cited from earlier work

Structure (SMILES): OC[C@H]1O[C@@H](n2cnc3c(NC4CCCC4)ncnc32)[C@H](O)[C@@H]1O [CPA, N-cyclopentyladenosine]
- stimulation of bone marrow cell proliferation ([1]; concentrations of 0.1 and 0.01 μM, FIG 2): statistically significant stimulation
- in vivo protection against myelotoxicity of chemotherapeutic drugs ([2]; mice given CYP 50 mg/kg, CPA 6 μg/kg per os): provides in vivo protection against myelotoxicity; also recorded: acts as a chemoprotective agent
- level of G-CSF (summary in words) ([3]; combined treatment versus CYP only, CPA given orally to mice): induces in vivo G-CSF production

Structure (SMILES): O=P1(N(CCCl)CCCl)NCCCO1 (stereo not shown) [CYP, cyclophosphamide]
- number of leukocytes and neutrophils (summary in words) ([2]; CYP only versus control, combined treatment versus CYP only): reduce significantly
- Neutrophils (no.) ([2]; 96 hrs after CYP 50 mg/kg): 377 no.
- WBC (no.) ([2]; 96 hrs after CYP 50 mg/kg): 2620 no.
- Neutrophils (no.) ([2]; 120 hrs after CYP 50 mg/kg): 490 no.
- WBC (no.) ([2]; 120 hrs after CYP 50 mg/kg): 2800 no.
- Neutrophils (no.) ([2]; 144 hrs after CYP 50 mg/kg): 1326 no.
- WBC (no.) ([2]; 144 hrs after CYP 50 mg/kg): 3900 no.
- G-CSF (pgr/ml) ([3]; 96 hrs after CYP 50 mg/kg): 511.30 pgr/ml
- G-CSF (pgr/ml) ([3]; 120 hrs after CYP 50 mg/kg): 333.03 pgr/ml
- G-CSF (pgr/ml) ([3]; 144 hrs after CYP 50 mg/kg): 871.14 pgr/ml

Structure (SMILES): C#CCn1c(=O)c2c(ncn2C)n(C)c1=O [DMPX, 3,7-dimethyl-1-propargyl-xanthine]
- effect on bone marrow cell proliferation ([1]; 0.1 μM, given without or with adenosine, FIG 1): induced a stimulatory effect

Structure (SMILES): CCCn1c(=O)c2[nH]c(C3CCCC3)nc2n(CCC)c1=O [DPCPX, 1,3-dipropyl-8-cyclopentylxanthine]
- effect on adenosine-stimulated bone marrow cell proliferation ([1]; 0.1 μM, with adenosine, FIG 1): significantly reversed the stimulatory effect of adenosine

Structure (SMILES): Nc1ncnc2c1ncn2[C@@H]1O[C@H](CO)[C@@H](O)[C@H]1O [adenosine]
- 3[H]-thymidine incorporation of bone marrow cells [4]: stimulated
